Results on 28 compounds are retold here after article PMC7539012, “Hyperphosphorylated tau aggregation and cytotoxicity modulators screen identified prescription drugs linked to Alzheimer's disease and cognitive functions” (Scientific Reports, 2020).

Where a name gives a salt, the structure may show the parent alone.

In the first assay the test system is T1, 1N4R p-tau.
T1 construct: made in house; host or cells: E. coli (PIMAX system)
Kind of assay: p-tau aggregation modulator screen of 1280-compound library (ThS fluorescence net change over 16 h).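 Note: 30 µM compound with 6 µM p-tau over 16 h.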 It counts as biochemical.
Settings: not given
The compound `CNCCC(Oc1ccccc1OC)c1ccccc1` (stereo not shown) [Nisoxetine hydrochloride] came in with a ThS net change of 364.

As for `CCN(CC)CCOC(=O)C1(c2ccc([N+](=O)[O-])cc2)CCCC1.Cl` [Nitrocaramiphen hydrochloride], the ThS net change stood at 435.

The same assay, now with this note: 1280-compound library screen; ThS fluorescence net change over 16 h.
`COC(=O)Nc1nc2ccc(C(=O)c3cccs3)cc2[nH]1` [Nocodazole] returned a ThS net change of 409.

Consider `CNCCC=C1c2ccccc2CCc2ccccc21` [Nortriptyline hydrochloride], for which the ThS net change is listed as 380.

The compound `CC(CCc1ccccc1)NC(C)C(O)c1ccc(O)cc1` (stereo not shown) [Nylidrin] displayed a ThS net change of 408.

As for `Cc1nccn1CC1CCc2c(c3ccccc3n2C)C1=O.Cl` (stereo not shown) [Ondansetron Hydrochloride], the ThS net change came to 407.

Compound `Cc1ncc([N+](=O)[O-])n1CC(O)CCl` (stereo not shown) [Ornidazole] registered a ThS net change of 383.

Still in this assay, the particulars now being: library screen, ThS fluorescence net change over 16 h with p-tau.
As for `CC(=O)Oc1ccccc1C(=O)Nc1ncc([N+](=O)[O-])s1` [Nitazoxanide], the ThS net change was found to be 198.

Turning to `O=C1CN(/N=C/c2ccc([N+](=O)[O-])o2)C(=O)N1` [Nitrofurantoin], the ThS net change was determined as 303.

In turn, `CC1COc2c(N3CCN(C)CC3)c(F)cc3c(=O)c(C(=O)O)cn1c23` (stereo not shown) [Ofloxacin] registered a ThS net change of 311.

`Cc1ccccc1C(OCCN(C)C)c1ccccc1` (stereo not shown) [Orphenadrine hydrochloride] gave a ThS net change of 295.

The assay is the same for the next values; noted with them: p-tau aggregation modulator screen of 1280-compound library; ThS fluorescence net change.
`CCOC(=O)C1=C(C)NC(C)=C(C(=O)OC)C1c1cccc([N+](=O)[O-])c1` (stereo not shown) [Nitrendipine] came in with a ThS net change of 344.

Turning to `NC(=O)N/N=C/c1ccc([N+](=O)[O-])o1` [Nitrofural], the ThS net change was found to be 365.

Regarding `CNC(=C[N+](=O)[O-])NCCSCc1csc(CN(C)C)n1` [Nizatidine], the ThS net change was found to be 334.

Turning to `CNCCC=C1c2ccccc2C=Cc2ccccc21` [Norcyclobenzaprine], the ThS net change is recorded as 372.

`C#C[C@]1(O)CC[C@H]2[C@@H]3CCC4=CC(=O)CC[C@@H]4[C@H]3CC[C@@]21C` [Norethindrone] yielded a ThS net change of 356.

As for `C#C[C@]1(O)CC[C@H]2[C@@H]3CCC4=C(CCC(=O)C4)[C@H]3CC[C@@]21C` [Norethynodrel], the ThS net change is recorded as 341.

On to `CCn1cc(C(=O)O)c(=O)c2cc(F)c(N3CCNCC3)cc21` [Norfloxacin], for which the ThS net change is listed as 340.

Compound `CO[C@@H]1[C@@H](OC(N)=O)[C@@H](O)[C@H](Oc2ccc3c(O)c(NC(=O)c4ccc([O-])c(CC=C(C)C)c4)c(=O)oc3c2C)OC1(C)C.[Na+]` [Novobiocin sodium salt] showed a ThS net change of 369.

As to `OCCN1CCN(CCCN2c3ccccc3C=Cc3ccccc32)CC1` [Opipramol dihydrochloride], the ThS net change was determined as 343.

Take `Cc1onc(-c2ccccc2)c1C(=O)N[C@@H]1C(=O)N2[C@@H]1SC(C)(C)[C@@H]2C(=O)[O-].[Na+]` [Oxacillin sodium]: the ThS net change worked out at 373.

The same assay, now with this note: p-tau aggregation modulator screen of 1280-compound library; […].
Consider `CN1Cc2c(N)cccc2C(c2ccccc2)C1` (stereo not shown) [Nomifensine maleate], for which the ThS net change was determined as 340.

As to `Cc1cc2c(s1)Nc1ccccc1N=C2N1CCN(C)CC1` [Olanzapine], the ThS net change is on record as 345.

Staying with this assay, now noted: p-tau aggregation modulator screen of the compound library, ThS fluorescence net change.
Turning to `CC(=O)O[C@]1(C(C)=O)CC[C@H]2[C@@H]3C=C(C)C4=CC(=O)CC[C@@H]4[C@H]3CC[C@@]21C` [Nomegestrol acetate], the ThS net change was 463.

As to `C#C[C@]1(O)CC[C@H]2[C@@H]3CCC4=CC(=O)CC[C@@H]4[C@H]3CC[C@@]21CC` [Norgestrel-(-)-D], the ThS net change amounted to 424.

For the compound `CC1/C=C/C=C/CC/C=C/C=C/C=C/C=C/C(O[C@@H]2O[C@H](C)[C@@H](O)[C@H](N)[C@@H]2O)CC(O)C(C(=O)O)C(O)CC(=O)CC(O)C(O)CCC(O)CC(O)CC(O)CC(=O)OC(C)C(C)C1O` (stereo partly shown) [Nystatine], the ThS net change worked out at 446.

Turning to `CN(C)CC/C=C1/c2ccccc2COc2ccc(CC(=O)O)cc21` [Olopatadine hydrochloride], the ThS net change is on record as 439.

Consider `COc1ccc2[nH]c([S+]([O-])Cc3ncc(C)c(OC)c3C)nc2c1` (stereo not shown) [Omeprazole], for which the ThS net change is listed as 454.
